In ChEMBL document CHEMBL1201862, “PubChem BioAssay data set” (2004):
Blank lines part the entries; values can stand above or below the compound they belong to. Activity calls are given as the source filed them.

Columns and labels:
[1] = biological target: T1, Tyrosine-protein phosphatase non-receptor type 22 (Homo sapiens, UniProt Q9Y2R2); format: functional;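 further: confirmatory dose-response retesting of primary uHTS hits against LYP; potency is for inhibition of phosphatase activity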
T1 sequence (Q9Y2R2 whole entry): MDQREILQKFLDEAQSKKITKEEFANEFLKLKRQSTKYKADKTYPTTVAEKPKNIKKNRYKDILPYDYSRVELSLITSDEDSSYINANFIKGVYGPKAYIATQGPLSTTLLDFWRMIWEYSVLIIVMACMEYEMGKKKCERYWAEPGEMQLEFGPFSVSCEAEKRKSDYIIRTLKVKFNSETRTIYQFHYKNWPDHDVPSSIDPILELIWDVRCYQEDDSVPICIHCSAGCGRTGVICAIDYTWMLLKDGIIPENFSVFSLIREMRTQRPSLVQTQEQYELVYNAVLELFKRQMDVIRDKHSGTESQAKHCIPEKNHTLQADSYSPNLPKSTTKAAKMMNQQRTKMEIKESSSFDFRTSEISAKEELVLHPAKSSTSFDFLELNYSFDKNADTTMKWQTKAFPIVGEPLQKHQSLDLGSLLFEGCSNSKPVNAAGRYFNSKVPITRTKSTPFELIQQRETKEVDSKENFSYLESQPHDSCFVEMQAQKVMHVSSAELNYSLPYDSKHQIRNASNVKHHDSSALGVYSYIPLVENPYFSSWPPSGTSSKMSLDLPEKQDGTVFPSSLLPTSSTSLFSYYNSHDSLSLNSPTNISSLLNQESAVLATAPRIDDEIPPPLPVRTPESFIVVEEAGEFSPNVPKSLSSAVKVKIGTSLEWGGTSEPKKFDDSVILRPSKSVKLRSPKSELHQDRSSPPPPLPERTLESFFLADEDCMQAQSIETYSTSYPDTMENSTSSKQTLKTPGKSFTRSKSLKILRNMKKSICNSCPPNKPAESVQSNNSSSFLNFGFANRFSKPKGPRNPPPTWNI

[2] = LGR2 antagonists, dose response, cell-based, HEK293, CRE-luciferase reporter, cherry pick, set 2 (AID 743343); format: functional;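 further: transfected cells were stimulated with diluted bursicon conditioned medium after compound addition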
[3] = biological target: 1-phosphatidylinositol 4,5-bisphosphate phosphodiesterase beta-3 (Homo sapiens, UniProt Q01970); test: Fluorescence-based biochemical high throughput dose response assay to identify inhibitors of phospholipase C isozymes (PLC-B3).
Sequence of 1-phosphatidylinositol 4,5-bisphosphate phosphodiesterase beta-3 (Q01970 whole entry): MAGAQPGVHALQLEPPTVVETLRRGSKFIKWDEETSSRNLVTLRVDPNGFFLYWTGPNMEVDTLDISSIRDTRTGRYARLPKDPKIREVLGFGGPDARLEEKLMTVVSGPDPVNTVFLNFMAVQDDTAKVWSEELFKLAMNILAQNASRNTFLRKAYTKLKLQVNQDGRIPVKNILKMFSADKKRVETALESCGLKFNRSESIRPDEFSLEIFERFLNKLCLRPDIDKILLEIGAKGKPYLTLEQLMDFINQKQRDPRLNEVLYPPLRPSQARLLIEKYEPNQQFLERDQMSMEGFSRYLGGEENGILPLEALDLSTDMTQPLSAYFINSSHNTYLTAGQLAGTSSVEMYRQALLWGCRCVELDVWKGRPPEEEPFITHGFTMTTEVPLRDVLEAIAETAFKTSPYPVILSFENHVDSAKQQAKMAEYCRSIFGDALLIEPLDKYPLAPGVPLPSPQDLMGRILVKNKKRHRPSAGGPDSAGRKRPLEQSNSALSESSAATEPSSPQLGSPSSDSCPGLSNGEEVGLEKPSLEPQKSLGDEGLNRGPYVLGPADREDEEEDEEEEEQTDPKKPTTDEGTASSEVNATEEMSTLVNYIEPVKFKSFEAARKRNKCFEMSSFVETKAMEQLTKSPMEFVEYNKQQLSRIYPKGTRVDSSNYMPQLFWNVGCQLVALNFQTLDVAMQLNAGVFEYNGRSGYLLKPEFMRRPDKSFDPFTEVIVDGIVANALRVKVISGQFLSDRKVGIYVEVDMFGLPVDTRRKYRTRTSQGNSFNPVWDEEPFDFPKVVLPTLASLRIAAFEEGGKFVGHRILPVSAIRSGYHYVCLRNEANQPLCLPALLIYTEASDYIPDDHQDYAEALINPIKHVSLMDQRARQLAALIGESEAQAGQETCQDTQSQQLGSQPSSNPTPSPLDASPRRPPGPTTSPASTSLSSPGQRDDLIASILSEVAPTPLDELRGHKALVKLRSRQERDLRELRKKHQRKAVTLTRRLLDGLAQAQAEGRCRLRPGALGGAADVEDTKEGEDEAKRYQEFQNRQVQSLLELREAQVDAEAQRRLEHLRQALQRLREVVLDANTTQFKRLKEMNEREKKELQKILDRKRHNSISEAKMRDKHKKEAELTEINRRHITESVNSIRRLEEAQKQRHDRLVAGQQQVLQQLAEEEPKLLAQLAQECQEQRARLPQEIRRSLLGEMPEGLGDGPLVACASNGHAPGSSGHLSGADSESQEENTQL

[4] = biological target: T2, Mannose-6-phosphate isomerase (Homo sapiens, UniProt P34949); test: human PMI inhibitors, high substrate, primary screen, biochemical, fluorescence intensity, high mannose 6-phosphate (AID 1220)
T2 sequence (P34949 whole entry): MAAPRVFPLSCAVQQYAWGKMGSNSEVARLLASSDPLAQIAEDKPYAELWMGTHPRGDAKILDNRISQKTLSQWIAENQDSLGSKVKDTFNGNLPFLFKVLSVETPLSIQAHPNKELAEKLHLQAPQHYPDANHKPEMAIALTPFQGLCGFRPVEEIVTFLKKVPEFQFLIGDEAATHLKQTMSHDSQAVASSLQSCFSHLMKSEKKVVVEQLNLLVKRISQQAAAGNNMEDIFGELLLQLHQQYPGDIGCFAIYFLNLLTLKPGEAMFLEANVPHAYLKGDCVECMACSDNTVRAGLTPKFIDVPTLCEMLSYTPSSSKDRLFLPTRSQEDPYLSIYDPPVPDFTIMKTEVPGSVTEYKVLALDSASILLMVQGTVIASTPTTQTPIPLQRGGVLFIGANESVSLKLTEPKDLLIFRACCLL

[5] = inhibitors of PGC1a acetylation in cells, dose response, cell-based, cherry-picked samples (AID 720514); format: functional;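 further: potency may reflect raised or lowered acetylation signal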
[6] = biological target: Serine/threonine-protein phosphatase PP1-alpha catalytic subunit (Homo sapiens, UniProt P62136); test: PP1 phosphatase inhibitors, dose response, biochemical, fluorescence (AID 2394)
Sequence of Serine/threonine-protein phosphatase PP1-alpha catalytic subunit (P62136 whole entry): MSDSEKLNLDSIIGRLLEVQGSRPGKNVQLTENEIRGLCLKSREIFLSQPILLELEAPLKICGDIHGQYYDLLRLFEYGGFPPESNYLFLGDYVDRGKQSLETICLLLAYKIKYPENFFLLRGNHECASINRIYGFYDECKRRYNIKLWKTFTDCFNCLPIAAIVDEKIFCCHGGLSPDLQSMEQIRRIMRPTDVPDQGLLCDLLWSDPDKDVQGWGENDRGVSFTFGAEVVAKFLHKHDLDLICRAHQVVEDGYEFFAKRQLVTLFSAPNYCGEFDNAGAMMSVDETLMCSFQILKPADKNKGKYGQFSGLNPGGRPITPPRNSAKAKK

[7] = biological target: Serine/threonine-protein kinase D3 (Homo sapiens, UniProt O94806); format: functional;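 further: determined within a kinase panel screen, with PRKCN as the panel member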
[8] = biological target: T3, Testis-specific serine/threonine-protein kinase 2 (Homo sapiens, UniProt Q96PF2); format: functional;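 further: part of the Navigating the Kinome panel, target entry STK22B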
T3 sequence (Q96PF2 whole entry): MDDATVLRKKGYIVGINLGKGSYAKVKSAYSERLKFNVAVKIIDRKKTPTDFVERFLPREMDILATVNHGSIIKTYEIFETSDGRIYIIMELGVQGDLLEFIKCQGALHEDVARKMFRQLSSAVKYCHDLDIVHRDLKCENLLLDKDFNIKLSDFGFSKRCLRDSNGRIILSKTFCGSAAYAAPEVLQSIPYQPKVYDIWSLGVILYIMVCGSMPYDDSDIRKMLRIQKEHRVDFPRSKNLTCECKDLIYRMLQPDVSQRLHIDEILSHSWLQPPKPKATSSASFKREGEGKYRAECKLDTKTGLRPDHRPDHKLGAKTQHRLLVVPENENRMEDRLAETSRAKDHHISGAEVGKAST

[9] = biological target: Interleukin-1 receptor-associated kinase 1 (Homo sapiens, UniProt P51617); format: functional;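 further: IRAK1 tested as one member of a kinome panel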
[10] = biological target: Vascular endothelial growth factor receptor 3 (Homo sapiens, UniProt P35916); format: functional;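 further: value from a kinome-wide profiling panel, with FLT4 as the panel member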
[11] = biological target: Receptor tyrosine-protein kinase erbB-2 (Homo sapiens, UniProt P04626); test: Navigating the Kinome. Panel member name: ERBB2; format: functional
[12] = biological target: Serine/threonine-protein kinase PLK1 (Homo sapiens, UniProt P53350); format: functional;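 further: PLK1 measured as one member of a kinome-wide profiling panel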
[13] = biological target: Receptor tyrosine-protein kinase erbB-4 (Homo sapiens, UniProt Q15303); format: functional;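 further: ERBB4 member of a kinome-wide kinase profiling panel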
[14] = biological target: MAP kinase-activated protein kinase 5 (Homo sapiens, UniProt Q8IW41); format: functional;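 further: measured as one member of a kinome panel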
Sequence of MAP kinase-activated protein kinase 5 (Q8IW41 whole entry): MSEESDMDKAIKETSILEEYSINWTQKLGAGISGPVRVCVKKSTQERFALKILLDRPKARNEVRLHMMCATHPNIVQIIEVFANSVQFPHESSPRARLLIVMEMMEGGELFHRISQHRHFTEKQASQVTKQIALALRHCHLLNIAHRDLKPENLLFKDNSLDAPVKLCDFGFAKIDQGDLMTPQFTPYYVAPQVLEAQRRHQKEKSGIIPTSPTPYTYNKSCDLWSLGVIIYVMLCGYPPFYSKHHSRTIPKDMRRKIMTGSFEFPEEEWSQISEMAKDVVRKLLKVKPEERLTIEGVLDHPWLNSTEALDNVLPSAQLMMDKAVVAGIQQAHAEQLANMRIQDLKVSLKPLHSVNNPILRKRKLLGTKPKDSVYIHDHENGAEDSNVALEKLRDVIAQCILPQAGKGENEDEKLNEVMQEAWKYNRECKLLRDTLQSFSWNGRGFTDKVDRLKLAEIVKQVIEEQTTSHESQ

[15] = biological target: Dual specificity tyrosine-phosphorylation-regulated kinase 1A (Homo sapiens, UniProt Q13627); format: functional;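 further: measured against DYRK1A as one member of a broad kinome profiling panel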
[16] = biological target: Vascular endothelial growth factor receptor 1 (Homo sapiens, UniProt P17948); format: functional;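 further: measured within a kinome-wide profiling panel, FLT1 as the panel member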
[17] = biological target: Glycogen synthase kinase-3 alpha (Homo sapiens, UniProt P49840); format: functional;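 further: GSK3A result taken from a broad kinome-wide kinase panel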
[18] = biological target: Tyrosine-protein kinase ITK/TSK (Homo sapiens, UniProt Q08881); format: functional;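 further: affinity for ITK measured as one member of a broad kinase panel profiling binding across the kinome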
[19] = biological target: Serine/threonine-protein kinase Nek4 (Homo sapiens, UniProt P51957); format: functional
Sequence of Serine/threonine-protein kinase Nek4 (P51957 whole entry): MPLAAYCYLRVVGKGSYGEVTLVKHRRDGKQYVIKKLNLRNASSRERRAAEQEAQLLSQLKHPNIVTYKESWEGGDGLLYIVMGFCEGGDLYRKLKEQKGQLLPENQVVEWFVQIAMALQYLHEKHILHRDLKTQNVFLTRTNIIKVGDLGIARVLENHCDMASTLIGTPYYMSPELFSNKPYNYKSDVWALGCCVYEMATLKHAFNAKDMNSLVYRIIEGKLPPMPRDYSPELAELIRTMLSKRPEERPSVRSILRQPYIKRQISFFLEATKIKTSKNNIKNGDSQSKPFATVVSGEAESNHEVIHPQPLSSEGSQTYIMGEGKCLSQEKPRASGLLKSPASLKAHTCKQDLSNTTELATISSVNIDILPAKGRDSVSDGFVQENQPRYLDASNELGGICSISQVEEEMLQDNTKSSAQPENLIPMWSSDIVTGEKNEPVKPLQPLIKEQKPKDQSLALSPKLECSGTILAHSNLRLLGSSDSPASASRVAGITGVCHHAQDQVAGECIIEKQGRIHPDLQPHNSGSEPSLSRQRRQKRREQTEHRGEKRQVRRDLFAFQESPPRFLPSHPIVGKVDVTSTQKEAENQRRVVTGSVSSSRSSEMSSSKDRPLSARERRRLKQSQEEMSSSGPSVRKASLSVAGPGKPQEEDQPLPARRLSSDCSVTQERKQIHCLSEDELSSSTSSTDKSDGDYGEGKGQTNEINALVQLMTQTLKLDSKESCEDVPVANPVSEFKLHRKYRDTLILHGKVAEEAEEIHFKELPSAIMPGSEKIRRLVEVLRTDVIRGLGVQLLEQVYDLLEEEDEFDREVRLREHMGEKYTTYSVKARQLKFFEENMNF

[20] = biological target: Receptor-type tyrosine-protein kinase FLT3 (Homo sapiens, UniProt P36888); format: functional;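 further: FLT3 was tested as one member of a kinome-wide kinase panel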
Insulin receptor = Insulin receptor (Homo sapiens, UniProt P06213); format: functional;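 further: insulin receptor kinase tested as one member of a kinome-wide kinase panel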
[21] = biological target: Mast/stem cell growth factor receptor Kit (Homo sapiens, UniProt P10721); format: functional;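 further: KIT entry within a kinase panel assay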
Sequence of Mast/stem cell growth factor receptor Kit (P10721 whole entry): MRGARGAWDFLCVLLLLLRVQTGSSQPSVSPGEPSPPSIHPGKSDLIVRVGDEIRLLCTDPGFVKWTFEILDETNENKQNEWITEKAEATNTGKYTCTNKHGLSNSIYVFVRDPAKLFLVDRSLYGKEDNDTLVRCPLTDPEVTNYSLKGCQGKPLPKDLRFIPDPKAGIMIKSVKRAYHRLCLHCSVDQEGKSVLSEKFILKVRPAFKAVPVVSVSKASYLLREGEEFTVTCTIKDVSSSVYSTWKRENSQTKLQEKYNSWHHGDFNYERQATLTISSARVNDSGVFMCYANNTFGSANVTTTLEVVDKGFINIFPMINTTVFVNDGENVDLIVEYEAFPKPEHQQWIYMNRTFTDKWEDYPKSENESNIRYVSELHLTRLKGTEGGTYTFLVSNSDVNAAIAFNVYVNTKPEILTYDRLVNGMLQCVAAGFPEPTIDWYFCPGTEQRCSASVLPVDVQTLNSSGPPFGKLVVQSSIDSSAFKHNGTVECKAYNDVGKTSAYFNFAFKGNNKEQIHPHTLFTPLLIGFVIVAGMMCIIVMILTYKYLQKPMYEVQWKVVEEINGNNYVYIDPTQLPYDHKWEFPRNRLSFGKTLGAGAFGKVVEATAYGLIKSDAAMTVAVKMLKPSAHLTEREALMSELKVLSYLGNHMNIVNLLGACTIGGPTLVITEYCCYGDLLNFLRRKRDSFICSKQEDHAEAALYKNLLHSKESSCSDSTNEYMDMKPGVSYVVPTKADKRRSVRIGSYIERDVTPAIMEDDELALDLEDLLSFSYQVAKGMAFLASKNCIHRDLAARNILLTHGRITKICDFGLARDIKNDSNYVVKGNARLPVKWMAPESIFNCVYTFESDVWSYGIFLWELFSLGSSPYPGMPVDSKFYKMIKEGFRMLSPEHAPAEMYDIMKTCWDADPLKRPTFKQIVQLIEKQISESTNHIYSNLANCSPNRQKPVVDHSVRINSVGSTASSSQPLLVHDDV

[22] = biological target: Maternal embryonic leucine zipper kinase (Homo sapiens, UniProt Q14680); format: functional
[23] = biological target: Serine/threonine-protein kinase N2 (Homo sapiens, UniProt Q16513); format: functional
Sequence of Serine/threonine-protein kinase N2 (Q16513 whole entry): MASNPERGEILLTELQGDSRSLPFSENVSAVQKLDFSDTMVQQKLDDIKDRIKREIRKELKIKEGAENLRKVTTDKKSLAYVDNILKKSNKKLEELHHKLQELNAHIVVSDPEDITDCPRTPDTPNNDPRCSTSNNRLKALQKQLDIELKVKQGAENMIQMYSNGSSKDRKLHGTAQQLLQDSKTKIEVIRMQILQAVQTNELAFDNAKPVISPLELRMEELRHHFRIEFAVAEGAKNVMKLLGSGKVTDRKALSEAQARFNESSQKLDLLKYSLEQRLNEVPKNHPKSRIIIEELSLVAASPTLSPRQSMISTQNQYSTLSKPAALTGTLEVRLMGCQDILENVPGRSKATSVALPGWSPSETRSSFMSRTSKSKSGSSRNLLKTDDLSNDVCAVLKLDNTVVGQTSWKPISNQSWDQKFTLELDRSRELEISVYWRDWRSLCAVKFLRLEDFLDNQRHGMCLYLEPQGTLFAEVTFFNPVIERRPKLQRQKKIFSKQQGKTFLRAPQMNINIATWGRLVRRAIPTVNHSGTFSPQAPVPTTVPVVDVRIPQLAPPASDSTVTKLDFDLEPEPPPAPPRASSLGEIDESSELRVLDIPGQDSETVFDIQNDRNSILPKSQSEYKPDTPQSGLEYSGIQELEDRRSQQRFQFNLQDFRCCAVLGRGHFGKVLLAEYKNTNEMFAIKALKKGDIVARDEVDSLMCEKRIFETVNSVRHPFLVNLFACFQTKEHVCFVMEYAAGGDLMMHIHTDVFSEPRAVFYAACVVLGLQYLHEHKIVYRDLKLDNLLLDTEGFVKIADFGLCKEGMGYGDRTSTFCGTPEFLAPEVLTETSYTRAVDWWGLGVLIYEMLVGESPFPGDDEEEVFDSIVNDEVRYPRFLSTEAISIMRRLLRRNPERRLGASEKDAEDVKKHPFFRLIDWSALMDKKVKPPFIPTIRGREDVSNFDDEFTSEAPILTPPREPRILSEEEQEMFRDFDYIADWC

SMILES: CCCc1nc2c(=O)n(C)c(=O)nc-2n(C)n1
IC50 [1]: 1.78 µM (active) | AC50 [2]: 5.47 µM (active) | IC50 [3]: > 122 µM (inactive) | IC50 [4]: 13.2 µM (active) | AC50 [5]: 2.95 µM (active)

IC50 [6]: > 67 µM (not active)
SMILES: CC(=O)c1ccc(NC2=C(N3CCOCC3)C(=O)c3ccccc3C2=O)cc1

Ki [7]: > 10 µM (inactive) | Ki [8]: 0.0631 µM (active) | Ki [9]: > 7.94 µM (inactive) | Ki [10]: 0.1 µM (active) | Ki [11]: 1 µM (active) | Ki [12]: 0.0126 µM (active) | Ki [13]: > 3.98 µM (inactive) | Ki [14]: 0.0631 µM (active) | Ki [15]: 5.01 µM (active) | Ki [16]: 0.126 µM (active) | Ki [17]: > 7.94 µM (inactive) | Ki [18]: 1 µM (active) | Ki [19]: > 6.31 µM (inactive) | Ki [20]: 0.0501 µM (active) | Ki (Insulin receptor): > 5.01 µM (inactive) | Ki [21]: 0.126 µM (active) | Ki [22]: 0.158 µM (active) | Ki [23]: > 7.94 µM (inactive)
SMILES: COc1cc2ncn(-c3cc(OCc4ccccc4C(F)(F)F)c(C(N)=O)s3)c2cc1OC [GW843682X]
